Increase data for five compounds are collected here from ChEMBL document CHEMBL1123339, “Ligand-receptor interactions via hydrogen-bond formation. Synthesis and pharmacological evaluation of pyrrolo and pyrido analogues of the cardiotonic agent 7-hydroxycyclindole” (1986).

The structures appear in SMILES notation.

The species named for the assay is Felis catus. Put plainly: Compound was evaluated for positive inotropic activity in vitro on cat papillary muscle, expressed as the percent increase over base-line contractility at 1 x 10 e-4 M. Type of assay: functional.
Turning to `CN(C)C1CCc2[nH]c3c(ccc4[nH]ccc43)c2C1` (stereo not given), the Increase was 15%.

`CN(C)C1CCc2[nH]c3c(ccc4ncccc43)c2C1` (stereo not given) gave an Increase of 80%.

With `CN(C)C1CCc2[nH]c3cc(O)ccc3c2C1` (stereo not given), the Increase was determined as 50%.

`Nc1cc(-c2ccncc2)c[nH]c1=O` [INAMRINONE] displayed an Increase of 50%.

As for `CN(C)C1CCc2c(c3ccc4ncccc4c3n2C)C1` (stereo not given), the Increase came out at 69%.
